The results in this text go back to US9453026B2, “ACC inhibitors and uses thereof” (Gilead Apollo, Inc., priority 2011, dated 2016).

ACC2, sequence (O00763 whole entry, species assumed): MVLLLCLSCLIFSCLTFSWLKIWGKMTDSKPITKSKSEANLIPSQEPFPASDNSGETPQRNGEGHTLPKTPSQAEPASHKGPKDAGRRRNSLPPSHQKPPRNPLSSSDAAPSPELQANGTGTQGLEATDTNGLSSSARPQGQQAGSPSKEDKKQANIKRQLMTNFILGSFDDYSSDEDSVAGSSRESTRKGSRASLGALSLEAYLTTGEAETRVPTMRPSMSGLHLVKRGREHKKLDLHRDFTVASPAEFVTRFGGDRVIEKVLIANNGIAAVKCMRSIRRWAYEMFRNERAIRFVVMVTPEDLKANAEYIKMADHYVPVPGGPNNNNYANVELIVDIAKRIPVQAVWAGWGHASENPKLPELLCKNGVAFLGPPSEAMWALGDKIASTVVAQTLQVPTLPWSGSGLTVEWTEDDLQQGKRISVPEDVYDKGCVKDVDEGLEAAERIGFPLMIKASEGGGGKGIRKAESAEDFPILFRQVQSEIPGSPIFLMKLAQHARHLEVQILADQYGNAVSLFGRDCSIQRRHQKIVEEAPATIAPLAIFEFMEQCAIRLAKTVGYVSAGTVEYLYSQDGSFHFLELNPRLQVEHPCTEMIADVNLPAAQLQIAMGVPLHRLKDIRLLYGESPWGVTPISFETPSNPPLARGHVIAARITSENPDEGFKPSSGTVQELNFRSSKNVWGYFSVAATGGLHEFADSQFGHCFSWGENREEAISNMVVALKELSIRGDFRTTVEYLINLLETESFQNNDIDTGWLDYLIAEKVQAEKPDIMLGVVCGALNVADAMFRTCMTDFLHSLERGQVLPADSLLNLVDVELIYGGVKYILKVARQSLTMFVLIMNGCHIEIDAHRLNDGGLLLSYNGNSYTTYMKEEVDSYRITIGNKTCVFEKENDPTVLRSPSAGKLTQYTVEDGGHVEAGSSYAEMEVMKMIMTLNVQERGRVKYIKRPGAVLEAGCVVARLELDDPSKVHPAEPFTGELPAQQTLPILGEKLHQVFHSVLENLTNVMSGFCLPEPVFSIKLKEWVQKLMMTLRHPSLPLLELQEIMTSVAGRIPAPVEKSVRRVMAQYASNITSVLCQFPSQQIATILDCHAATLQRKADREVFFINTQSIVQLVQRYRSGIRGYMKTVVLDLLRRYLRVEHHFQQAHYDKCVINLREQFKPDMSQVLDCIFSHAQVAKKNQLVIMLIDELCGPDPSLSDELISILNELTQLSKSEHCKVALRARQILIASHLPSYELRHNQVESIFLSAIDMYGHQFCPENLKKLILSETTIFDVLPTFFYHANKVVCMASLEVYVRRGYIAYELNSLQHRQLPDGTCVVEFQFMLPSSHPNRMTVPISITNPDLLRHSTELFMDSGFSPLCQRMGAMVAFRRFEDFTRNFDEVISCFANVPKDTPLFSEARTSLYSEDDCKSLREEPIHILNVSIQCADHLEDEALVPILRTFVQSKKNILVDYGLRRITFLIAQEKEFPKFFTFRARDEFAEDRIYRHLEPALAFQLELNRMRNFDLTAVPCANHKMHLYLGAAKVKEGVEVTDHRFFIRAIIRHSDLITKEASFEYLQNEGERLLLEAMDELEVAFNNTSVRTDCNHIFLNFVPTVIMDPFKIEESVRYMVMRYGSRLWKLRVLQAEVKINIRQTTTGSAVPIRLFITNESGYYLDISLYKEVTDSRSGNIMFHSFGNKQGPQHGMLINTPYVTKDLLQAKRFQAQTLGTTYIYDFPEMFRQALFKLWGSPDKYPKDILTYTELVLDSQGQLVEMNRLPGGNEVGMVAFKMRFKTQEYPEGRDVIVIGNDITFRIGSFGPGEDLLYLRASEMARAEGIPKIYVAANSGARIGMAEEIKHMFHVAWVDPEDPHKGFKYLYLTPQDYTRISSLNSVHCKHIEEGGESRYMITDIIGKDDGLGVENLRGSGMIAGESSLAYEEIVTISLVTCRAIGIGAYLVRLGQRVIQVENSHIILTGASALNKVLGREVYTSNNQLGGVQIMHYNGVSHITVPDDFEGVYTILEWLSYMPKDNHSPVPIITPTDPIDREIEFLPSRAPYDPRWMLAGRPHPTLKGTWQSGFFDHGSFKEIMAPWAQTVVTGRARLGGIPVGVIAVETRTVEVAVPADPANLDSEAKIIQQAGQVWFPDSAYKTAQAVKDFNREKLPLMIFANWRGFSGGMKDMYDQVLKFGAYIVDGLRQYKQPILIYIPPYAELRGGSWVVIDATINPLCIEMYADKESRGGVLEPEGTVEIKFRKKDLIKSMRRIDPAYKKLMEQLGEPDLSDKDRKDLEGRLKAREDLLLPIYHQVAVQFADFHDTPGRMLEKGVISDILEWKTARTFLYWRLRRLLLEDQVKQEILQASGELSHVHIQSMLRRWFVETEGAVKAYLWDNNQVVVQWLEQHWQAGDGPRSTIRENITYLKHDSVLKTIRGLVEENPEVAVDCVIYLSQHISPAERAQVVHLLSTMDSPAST

The target in one experiment is ACC1 (Homo sapiens, UniProt Q13085). As to the kind of experiment: In vitro ACC1 inhibition assay (ADP-Glo). The settings on record: read-out: ACC1. The class given is biochemical. The procedure:
An exemplary procedure for the in vitro ACC inhibition assay, which can be used to determine the inhibitory action of compounds of the invention toward either ACC1 or ACC2, follows. The ADP-Glo™ Kinase Assay kit from Promega was used. The ADP-Glo™ Kinase Assay is a luminescent ADP detection assay to measure enzymatic activity by quantifying the amount of ADP produced during an enzyme reaction. The assay is performed in two steps; first, after the enzyme reaction, an equal volume of ADP-Glo™ Reagent is added to terminate the reaction and deplete the remaining ATP. Second, the Kinase Detection Reagent is added to simultaneously convert ADP to ATP and allow the newly synthesized ATP to be measured using a luciferase/luciferin reaction. Luminescence can be correlated to ADP concentrations by using an ATP-to-ADP conversion curve. The detailed procedure is as follows. 50 μL of the compound being tested (600 uM in DMSO) was added to a 384-well dilution plate. The compound was diluted 1:3 in succession in DMSO for each row for 11 wells. 0.5 μL ACC2 working solution was added to 384-well white Optiplate assay plate. 0.5 μL diluted compound solution in each column from step 2 to assay plate, each row containing 2 replicates. […] The plates were incubated at room temperature for 15 minutes. 5 μL substrate working solution was added to each well to initiate reaction. […] Plates were incubated at room temperature for 60 minutes. 10 μL ADP glo reagent was added. Plates were incubated at room temperature for 40 minutes. 20 μL kinase detection reagent was added.
Data for each concentration, as well as the positive and negative controls were averaged, and the standard deviation calculated. Percent inhibition was calculated by the formula: 100× (average negative control−compound)/(average negative control−average positive control). The IC50 for each compound was calculated by fitting the data with a non-linear regression equation: Y=Bottom+(Top-Bottom)/(1+10^((Log IC50−X)*HillSlope)), where X is the log of compound concentration and Y is percent inhibition.
The compound numbers correspond to the compound numbers in Table 1.
For the molecule `COc1ccccc1[C@@H](O)Cn1c(=O)n(C(C)(C)C(=O)O)c(=O)c2c(C)c(-c3ncco3)sc21` [I-248, 2-[1-[(2R)-2-hydroxy-2-(2-methoxyphenyl)ethyl]-5-methyl-6-(1,3-oxazol-2-yl)-2,4-dioxo-1H,2H,3H,4H-thieno[2,3-d]pyrimidin-3-yl]-2-methylpropanoic acid], the IC50 was less than 1000 nM. Take `Cc1c(-c2ncco2)sc2c1c(=O)n(C(C)(C)C(N)=O)c(=O)n2C[C@H](OC1CCOCC1)c1ccccc1Cl` [I-252, 2-[1-[(2R)-2-(2-chlorophenyl)-2-(oxan-4-yloxy)ethyl]-5-methyl-6-(1,3-oxazol-2-yl)-2,4-dioxo-1H,2H,3H,4H-thieno[2,3-d]pyrimidin-3-yl]-2-methylpropanamide]: the IC50 is less than 1000 nM. The same measure, in the same setting: as for `Cc1c(-c2ncco2)sc2c1c(=O)n(C(C)(C)C(=O)N1CCC1)c(=O)n2C[C@H](OC1CCOCC1)c1ccccc1Cl` [I-253, 3-[1-(azetidin-1-yl)-2-methyl-1-oxopropan-2-yl]-1-[(2R)-2-(2-chlorophenyl)-2-(oxan-4-yloxy)ethyl]-5-methyl-6-(1,3-oxazol-2-yl)-1H,2H,3H,4H-thieno[2,3-d]pyrimidine-2,4-dione], the figure is less than 1000 nM; as for `Cc1c(-c2ncco2)sc2c1c(=O)n(C(C)(C)C(=O)O)c(=O)n2C[C@H](OC(C)C)c1ccccc1OC(F)(F)F` [I-265, (R)-2-(1-(2-isopropoxy-2-(2-(trifluoromethoxy)phenyl)ethyl)-5-methyl-6-(oxazol-2-yl)-2,4-doxo-1,2-dihydrotheno[2,3-d]pyrimidin-3(4H)-yl)-2-methylpropanoic acid], less than 1000 nM; as for `Cc1c(-c2ncco2)sc2c1c(=O)n(C(C)(C)C(=O)O)c(=O)n2C[C@H](OC1CCOCC1)c1ccccc1C(F)(F)F` [I-266, 2-methyl-2-[5-methyl-1-[(2R)-2-(oxan-4-yloxy)-2-[2-(trifluoromethyl)phenyl]ethyl]-6-(1,3-oxazol-2-yl)-2,4-dioxo-1H,2H,3H,4H-thieno[2,3-d]pyrimidin-3-yl]propanoic acid], less than 1000 nM.

Another experiment concerns the target ACC2 (Homo sapiens, UniProt O00763). Nature of the experiment: In vitro ACC2 inhibition assay (ADP-Glo). It is filed as biochemical. The settings on record: read-out: ACC2. The method in brief:
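Enzyme (human ACC1 or ACC2) and compound, serially diluted 1:3 over 11 points from a 600 uM DMSO stock, were preincubated 15 min before substrate addition.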
Background: In ADP-Glo the light output rises with the ADP produced.
Regarding `Cc1c(-c2ncco2)sc2c1c(=O)n(C(C)(C)C(=O)O)c(=O)n2C[C@H](OC(=O)N1CC(O)C1)c1ccccc1` [I-230, 2-[1-[(2R)-2-[(3-hydroxyazetidin-1-yl)carbonyloxy]-2-phenylethyl]-5-methyl-6-(1,3-oxazol-2-yl)-2,4-dioxo-1H,2H,3H,4H-thieno[2,3-d]pyrimidin-3-yl]-2-methylpropanoic acid], the IC50 is less than 5000 nM.

On to `Cc1c(-c2ncco2)sc2c1c(=O)n(C(C)(C)C(=O)O)c(=O)n2C[C@H](OC(=O)N1CCOCC1)c1ccccc1` [I-231, 2-methyl-2-[5-methyl-1-[(2R)-2-[(morpholin-4-yl)carbonyloxy]-2-phenylethyl]-6-(1,3-oxazol-2-yl)-2,4-dioxo-1H,2H,3H,4H-thieno[2,3-d]pyrimidin-3-yl]propanoic acid], for which the IC50 was less than 5000 nM.

On to `Cc1c(-c2ncco2)sc2c1c(=O)n(C(C)(C)C(=O)O)c(=O)n2CCOC1CCOCC1` [I-233, 2-methyl-2-[5-methyl-1-[2-(oxan-4-yloxy)ethyl]-6-(1,3-oxazol-2-yl)-2,4-dioxo-1H,2H,3H,4H-thieno[2,3-d]pyrimidin-3-yl]propanoic acid], for which the IC50 was less than 5000 nM.

In the case of `Cc1c(-c2ncco2)sc2c1c(=O)n(C(C)(C)C(=O)O)c(=O)n2CCOC(C)C` [I-234, 2-methyl-2-[5-methyl-6-(1,3-oxazol-2-yl)-2,4-dioxo-1-[2-(propan-2-yloxy)ethyl]-1H,2H,3H,4H-thieno[2,3-d]pyrimidin-3-yl]propanoic acid], the IC50 is less than 5000 nM. Consider `COc1ccccc1[C@H](Cn1c(=O)n(C(C)(C)C(=O)NS(C)(=O)=O)c(=O)c2c(C)c(-c3ncco3)sc21)OC(C)C` [I-240, N-methanesulfonyl-2-[1-[(2R)-2-(2-methoxyphenyl)-2-(propan-2-yloxy)ethyl]-5-methyl-6-(1,3-oxazol-2-yl)-2,4-dioxo-1H,2H,3H,4H-thieno[2,3-d]pyrimidin-3-yl]-2-methylpropanamide], for which the IC50 is less than 100 nM.

On to `Cc1c(-c2ncco2)sc2c1c(=O)n(C(C)(C)C(=O)O)c(=O)n2C[C@@H](OC1CCOCC1)c1ccccc1Cl` [I-251, 2-[1-[(2S)-2-(2-chlorophenyl)-2-(oxan-4-yloxy)ethyl]-5-methyl-6-(1,3-oxazol-2-yl)-2,4-dioxo-1H,2H,3H,4H-thieno[2,3-d]pyrimidin-3-yl]-2-methylpropanoic acid], for which the IC50 is less than 5000 nM. Still for that read-out and setting: the result for `COc1ccccc1[C@H](Cn1c(=O)n(C(C)(C)C(=O)NCCO)c(=O)c2c(C)c(-c3ncco3)sc21)OC(C)C` [I-257, N-(2-hydroxyethyl)-2-[1-[(2R)-2-(2-methoxyphenyl)-2-(propan-2-yloxy)ethyl]-5-methyl-6-(1,3-oxazol-2-yl)-2,4-dioxo-1H,2H,3H,4H-thieno[2,3-d]pyrimidin-3-yl]-2-methylpropanamide] reads less than 5000 nM. Same read-out and setting: as for `COc1ccccc1[C@H](Cn1c(=O)n(C(C)(C)C(=O)O)c(=O)c2c(C)c(-c3ncco3)sc21)OC1COC1` [I-261, (R)-2-(1-(2-(2-methoxyphenyl)-2-(oxetan-3-yloxy)ethyl)-5-methyl-6-(oxazol-2-yl)-2,4-dioxo-1,2-dihydrothieno[2,3-d]pyrimidin-3(4H)-yl)-2-methylpropanoic acid], the figure is less than 5000 nM; as for `COc1ccccc1[C@@H](Cn1c(=O)n(C(C)(C)C(=O)O)c(=O)c2c(C)c(-c3ncco3)sc21)OC1COC1` [I-262, (S)-2-(1-(2-(2-methoxyphenyl)-2-(oxetan-3-yloxy)ethyl)-5-methyl-6-(oxazol-2-yl)-2,4-dioxo-1,2-dihydrothieno[2,3-d]pyrimidin-3(4H)-yl)-2-methylpropanoic acid], less than 5000 nM; as for `CCc1ccccc1[C@@H](Cn1c(=O)n(C(C)(C)C(=O)O)c(=O)c2c(C)c(-c3ncco3)sc21)OCCO` [I-263, 2-[1-[(2S)-2-(2-ethylphenyl)-2-(2-hydroxyethoxy)ethyl]-5-methyl-6-(1,3-oxazol-2-yl)-2,4-dioxo-1H,2H,3H,4H-thieno[2,3-d]pyrimidin-3-yl]-2-methylpropanoic acid], less than 1000 nM. On the same count and under the same terms, as for `COc1ccccc1[C@H](Cn1c(=O)n(CC(N)=O)c(=O)c2c(C)c(Br)sc21)OC1CCOCC1` [I-285, 2-[6-bromo-1-[(2R)-2-(2-methoxyphenyl)-2-(oxan-4-yloxy)ethyl]-5-methyl-2,4-dioxo-1H,2H,3H,4H-thieno[2,3-d]pyrimidin-3-yl]acetamide], the figure is less than 5000 nM; as for `COCc1ccccc1[C@H](Cn1c(=O)n(C(C)(C)C(=O)O)c(=O)c2c(C)c(-c3ncco3)sc21)OC1CCOCC1` [I-293, 2-[1-[(2R)-2-[2-(methoxymethyl)phenyl]-2-(oxan-4-yloxy)ethyl]-5-methyl-6-(1,3-oxazol-2-yl)-2,4-dioxo-1H,2H,3H,4H-thieno[2,3-d]pyrimidin-3-yl]-2-methylpropanoic acid], less than 100 nM. `Cc1c(-c2ncco2)sc2c1c(=O)n(C(C)(C)C(=O)O)c(=O)n2C[C@H](OC1CCOCC1)c1ccccc1CO` [I-296, 2-[1-[(2R)-2-[2-(hydroxymethyl)phenyl]-2-(oxan-4-yloxy)ethyl]-5-methyl-6-(1,3-oxazol-2-yl)-2,4-dioxo-1H,2H,3H,4H-thieno[2,3-d]pyrimidin-3-yl]-2-methylpropanoic acid]: the IC50 was less than 100 nM.
